pIC50: −log10 of the molar value.
Target: T1, Ubiquitin carboxyl-terminal hydrolase BAP1 (Homo sapiens, UniProt Q92560)
T1 sequence (Q92560 whole entry): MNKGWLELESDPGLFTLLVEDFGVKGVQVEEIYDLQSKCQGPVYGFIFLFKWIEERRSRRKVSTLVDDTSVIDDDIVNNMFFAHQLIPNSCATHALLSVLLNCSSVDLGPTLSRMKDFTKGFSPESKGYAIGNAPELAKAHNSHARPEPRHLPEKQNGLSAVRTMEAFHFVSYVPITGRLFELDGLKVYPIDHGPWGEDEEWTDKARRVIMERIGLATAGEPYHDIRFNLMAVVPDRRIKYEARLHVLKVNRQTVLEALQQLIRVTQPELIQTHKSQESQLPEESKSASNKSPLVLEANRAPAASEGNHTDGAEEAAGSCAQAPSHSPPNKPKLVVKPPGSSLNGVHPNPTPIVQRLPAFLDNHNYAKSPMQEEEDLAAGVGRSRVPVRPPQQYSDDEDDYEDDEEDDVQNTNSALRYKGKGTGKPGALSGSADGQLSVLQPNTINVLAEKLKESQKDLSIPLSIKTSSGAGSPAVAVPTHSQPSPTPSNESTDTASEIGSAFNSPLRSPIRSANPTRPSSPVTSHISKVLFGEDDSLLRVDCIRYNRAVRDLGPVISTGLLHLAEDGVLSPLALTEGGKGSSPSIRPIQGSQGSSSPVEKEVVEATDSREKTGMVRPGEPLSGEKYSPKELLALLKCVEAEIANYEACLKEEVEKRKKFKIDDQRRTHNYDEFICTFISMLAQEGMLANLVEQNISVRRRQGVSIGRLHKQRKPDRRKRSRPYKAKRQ
Experiment: BAP1 deubiquitinase inhibitors, dose response, biochemical (AID 714)

pIC50	SMILES
4.47	CCCOC(=O)C1=C(C)N=C2CCCC(=O)C2C1c1cccc(OC)c1OC (configuration not stated) [4-(2,3-dimethoxyphenyl)-2-methyl-5-oxo-4,6,7,8-tetrahydro-1H-quinoline-3-carboxylic acid propyl ester]
< 4.30	CC(=O)C1=C(C)N=C(SCC(=O)c2ccc(Cl)c(Cl)c2)C(C#N)C1c1ccco1 (configuration not stated) [5-acetyl-2-[2-(3,4-dichlorophenyl)-2-oxoethyl]sulfanyl-4-(furan-2-yl)-6-methyl-1,4-dihydropyridine-3-carbonitrile]

— BindingDB's records for doi:10.7270/Q2KW5DFJ (Emory University, 2007)
